Test results as given in ChEMBL document CHEMBL5344408, “Pyrimidine thioethers: A novel class of antidepressant agents, endowed with anxiolytic, performance enhancing and nootropic activity” (Eur J Med Chem, 2023).
“And” between values parts separate entries of the source, which are not always exact repeats. Identical values can stand only once. The source made the active and inactive calls. The rule behind the calls is not given here.

Tests used:
Mus musculus [1] = assay: Effect on memory formation in Albino mouse assessed as memory of negative experience by measuring dark room entry at […], po administered through intragastric tube measured after 7 days by conditioned avoidance test; assay type: functional, organism-based; settings: time 7.0 day
Mus musculus [2] = assay: Anxiolytic activity in Albino mouse assessed as increase in number of central zone crossing at […], po administered through intragastric tube measured after 40 mins by elevated plus maze test; assay type: functional, organism-based
Mus musculus [3] = assay: Anxiolytic activity in Albino mouse assessed as increase in number of open arm entries at […], po administered through intragastric tube measured after 40 mins by elevated plus maze test; assay type: functional, organism-based
Mus musculus [4] = assay: Nootropic activity in Albino mouse assessed as quick escape from restricting factor in aversive environment at […], po administered through intragastric tube measured after 7 days by conditioned avoidance test; assay type: functional, organism-based; settings: time 7.0 day
Mus musculus [5] = assay: Anxiolytic activity in Albino mouse assessed as rapid open arm entry at […], po administered through intragastric tube measured after 40 mins by elevated plus maze test; assay type: functional, organism-based
Mus musculus [6] = assay: Anxiolytic activity in Albino mouse assessed as increase in time spent in open arm entries at […], po administered through intragastric tube measured after 40 mins by elevated plus maze test; assay type: functional, organism-based
[7] = Toxicity in po dosed female Albino mouse; assay type: organism-based; settings: in vivo
Mus musculus [8] = assay: Antidepressant activity in Albino mouse with social depression assessed as increase in interaction frequency with partner mouse at […], po administered through intragastric tube measured after 40 mins by social interaction test; assay type: functional, organism-based
Mus musculus [9] = assay: Antidepressant activity in Albino mouse with social depression assessed as increase in time of interaction with partner mouse at […], po administered through intragastric tube measured after 40 mins by social interaction test; assay type: functional, organism-based
Mus musculus [10] = assay: Anxiolytic activity in Albino mouse assessed as increase in motor activity by measuring increase in number of square crossing at […], po administered through intragastric tube measured after 40 mins by open field test; assay type: functional, organism-based

| SMILES | Activity (Mus musculus [1]) | Activity (Mus musculus [2]) | Activity (Mus musculus [3]) | Activity (Mus musculus [4]) | Activity (Mus musculus [5]) | Activity (Mus musculus [6]) | LD50 ([7]; female, Albino, read-out: LD50) | Activity (Mus musculus [8]) | Activity (Mus musculus [9]) | Activity (Mus musculus [10]) | LD50 ([7]; po) |
| --- | --- | --- | --- | --- | --- | --- | --- | --- | --- | --- | --- |
| CC(C)c1c(O)nc(N2CCSCC2)[nH]c1=O | inactive | Active | Active | Active | Active | Active | – | – | – | – | – |
| CC(C)c1c(O)nc(SCCN(C)C)nc1O | Active | Active | Active | inactive | Active | Active | – | – | – | – | – |
| CCCC(C)c1c(O)nc(SCCN(CC)CC)[nH]c1=O.Cl (stereo unspecified) | inactive | Active | Active | inactive | Active | Active | 1840 mg/kg and 5720 µmol/kg | Active | Active | – | – |
| CCCC(C)c1c(O)nc(SCCN2CCCCC2)[nH]c1=O (stereo unspecified) | inactive | – | Active | – | inactive | – | – | – | – | – | – |
| CSCCc1c(O)nc(SCCN2CCCCC2)[nH]c1=O | inactive | Active | Active | inactive | – | – | – | – | – | – | – |
| CCCC(C)c1c(O)nc(SCCN2CCCC2)[nH]c1=O (stereo unspecified) | inactive | Active | Active | – | – | Active | – | – | – | inactive | – |
| CC(C)CCc1c(O)nc(SCCN(C)C)[nH]c1=O | inactive | – | – | inactive | – | – | – | – | – | – | – |
| CCN(CC)CCSc1nc(O)c(CCSC)c(=O)[nH]1 | inactive | – | – | Active | inactive | – | – | – | – | Active | – |
| CC(C)CCc1c(O)nc(SCCN2CCCCC2)[nH]c1=O | inactive | – | – | Active | inactive | – | – | – | – | – | – |
| CCCC(C)c1c(O)nc(SCCN(C)C)[nH]c1=O (stereo unspecified) | inactive | Active | Active | Active | Active | Active | – | – | – | Active | – |
| CC(C)CCc1c(O)nc(SCCN2CCCC2)[nH]c1=O | inactive | – | – | – | inactive | – | – | – | – | – | – |
| CSCCc1c(O)nc(SCCN(C)C)[nH]c1=O | inactive | Active | Active | – | – | – | – | – | – | inactive | – |
| CC(C)c1c(O)nc(SCCN2CCCC2)[nH]c1=O.Cl | inactive | – | – | – | – | – | – | – | – | Active | 544 mg kg-1 and 1563 umol/Kg |
| CCN(CC)CCSc1nc(O)c(C(C)C)c(O)n1 | Active | – | – | – | Active | Active | – | – | – | – | – |
| CCN(CC)CCSc1nc(O)c(CCC(C)C)c(=O)[nH]1 | inactive | – | – | – | inactive | – | – | – | – | Active | – |
| CSCCc1c(O)nc(SCCN2CCCC2)[nH]c1=O | inactive | Active | Active | – | Active | Active | – | – | – | inactive | – |
| CSCCSc1nc(O)c(C(C)C)c(=O)[nH]1 | Active | Active | Active | inactive | Active | – | – | – | – | Active | – |
| CC(C)c1c(O)nc(SCCN2CCCCC2)[nH]c1=O | Active | Active | Active | – | Active | Active | – | – | – | – | – |
